Data: the supplement of paper PMC6470124

Experiments:
[1] = absolute recovery over vacuum-assisted evaporative concentration; higher = better recovery; settings: enrichment method: VEC
Procedure, shortened: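 After spiking with standards before concentration, after concentration or not at all, at 1000 ng/L for wastewater or 200 ng/L for nanopure and surface water with class- and compound-specific adjustments, samples of 6 mL influent, 15 mL effluent and 60 mL surface or nanopure water were evaporated at 55 °C and 20 mbar to about 0.3 mL. They were brought to 0.4 mL, centrifuged, given internal standards and analysed by LC-HRMS/MS. Absolute recovery, (response ratio pre − unspiked)/(post − unspiked) × 100, used averages of ≥ 2 replicates.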

[2] = absolute recovery over mixed-bed multilayer solid-phase extraction; higher = better recovery; settings: enrichment method: SPE
Procedure, shortened: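 Wastewater (100–250 mL, adjusted to pH 6.5 and glass-fibre filtered) or 1000 mL unfiltered nanopure water was loaded on a three-layer mixed-bed cartridge and eluted with basic then acidic ethyl acetate/methanol. Standards were spiked before extraction, after it, or not at all, at 200 ng/L (water) or 1000 ng/L (wastewater), with class exceptions. Internal standards were added afterwards, then LC-HRMS/MS ran in both ionisation modes. Absolute recovery compares background-corrected response ratios of pre- versus post-spiked samples, averaged over at least two replicates.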

[3] = LC retention time (Atlantis T3, 5-95% MeOH gradient, 0.1% formic acid); higher = more retained / less polar
Procedure, shortened: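 Retention times were recorded for reference standards (purity ≥ 95%) on a polar reversed-phase C18 column (Atlantis T3, 3 × 150 mm, 3 μm) at 0.3 mL/min. Elution used water and methanol, each with 0.1% formic acid, in a gradient from 5 to 95% methanol over 17.5 min. Detection was by high-resolution tandem mass spectrometry on a QExactive Plus, with positive and negative electrospray in separate runs. Peaks were found and integrated in TraceFinder (5 ppm tolerance, at least three points per peak) and then checked by hand.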

| Compound | absolute recovery ([1]; wastewater effluent) [%] | absolute recovery ([1]; wastewater influent) [%] | absolute recovery ([2]; nanopure water) [%] | absolute recovery ([2]; wastewater effluent) [%] | absolute recovery ([2]; wastewater influent) [%] | LC retention time [3] [min] | absolute recovery ([2]; surface water) [%] |
| --- | --- | --- | --- | --- | --- | --- | --- |
| C[Si](Cn1cncn1)(c1ccc(F)cc1)c1ccc(F)cc1 [Flusilazol] | 114 | 107 | 103 | 99.5 | 82.4 | 20.4 | – |
| CC(C)Oc1cccc(NC(=O)c2ccccc2C(F)(F)F)c1 [Flutolanil] | 94 | 103 | 104 | 95.7 | 98 | 19.5 | 104 |
| CCC(=O)OC(OP(=O)(CCCCc1ccccc1)CC(=O)N1CC(C2CCCCC2)CC1C(=O)[O-])C(C)C (stereo not given) [Fosinopril] | 90.6 | 36.6 | 97.7 | 51.5 | 96.2 | 23.1 | 22 |
| NS(=O)(=O)c1cc(C(=O)[O-])c(NCc2ccco2)cc1Cl [Furosemid] | 101 | 97.9 | 77.3 | 78.8 | 87.3 | 16.2 | – |
| [NH3+]CC1(CC(=O)[O-])CCCCC1 [Gabapentin] | 99.5 | 98.3 | 20.3 | – | – | 10.4 | – |
| CC1COC(=O)c2cc3c(cc21)C(C)(C)C(C)C3(C)C (stereo not given) [Galaxolidon] | 61.8 | 63.2 | 103 | 86.1 | 108 | 22.2 | 104 |
| Nc1ccn(C2OC(CO)C(O)C2(F)F)c(=O)n1 (stereo not given) [Gemcitabin] | 88.8 | 12.8 | 86.7 | 94.3 | 91.1 | 6.58 | 94.5 |
| O=c1c(-c2ccc(O)cc2)coc2cc([O-])cc(O)c12 [Genistein] | 93 | 89.9 | 99.2 | 99.5 | 93.3 | 17.9 | 103 |
| CC(Oc1ccc(Oc2ncc(C(F)(F)F)cc2Cl)cc1)C(=O)[O-] (stereo not given) [Haloxyfop] | 102 | 95.4 | 84.3 | 84.4 | 95.4 | 21 | 73.9 |
| CN(C)c1nc(=O)n(C2CCCCC2)c(=O)n1C [Hexazinon] | 106 | 92.6 | 96.4 | 94.3 | 88.8 | 17.2 | 93.7 |
| NS(=O)(=O)c1cc2c(cc1Cl)NCNS2(=O)=O [Hydrochlorothiazid] | 104 | 100 | 96.7 | 89.1 | 91.7 | 10.2 | 98.2 |
| COc1ccc2c3c1OC1C(=O)CCC4C(C2)[NH+](C)CCC314 (stereo not given) [Hydrocodone] | 103 | 100 | 82.5 | 93.1 | 89.3 | 9.79 | 89.4 |
| CC12CCC(=O)C=C1CCC1C2C(O)CC2(C)C1CCC2(O)C(=O)CO (stereo not given) [Hydrocortison] | 102 | 57.5 | 86.5 | 80.9 | 94 | 18 | 80.2 |
| CCCCNC(=O)OCC#CI [IPBC (=Iodocarb)] | 60.1 | – | 97.8 | 72.2 | 74.3 | 18.1 | 79.9 |
| CC(C)Cc1ccc(C(C)C(=O)[O-])cc1 (stereo not given) [Ibuprofen] | 98.5 | – | 84.5 | 118 | – | 21 | – |
| O=P1(NCCCl)OCCCN1CCCl (stereo not given) [Ifosfamid] | 102 | 99.2 | 109 | 92.9 | 89.1 | 15.5 | 99.4 |
| COCc1cnc(C2=NC(C)(C(C)C)C(=O)N2)c(C(=O)[O-])c1 (stereo not given) [Imazamox] | 104 | 94.7 | 92.3 | 90.7 | 90.4 | 15.1 | 93.4 |
| NC1=[NH+]CCN1Cc1ccc(Cl)nc1 [Imidacloprid-desnitro] | 107 | 103 | 113 | 104 | 106 | 8.99 | 110 |
| O=C1NCCN1Cc1ccc(Cl)nc1 [Imidacloprid-urea] | 108 | 104 | 117 | 103 | 94.9 | 13.2 | 108 |
| O=[N+]([O-])N=C1NCCN1Cc1ccc(Cl)nc1 [Imidacloprid] | 103 | 98.6 | 97.8 | 95.4 | 91.9 | 13.4 | 96.7 |
| C1=Cc2ccccc2Nc2ccccc21 [Iminostilben] | 22.9 | 37.9 | 90.1 | 79.4 | 89 | 20 | 82.6 |
| COc1ccc2c(c1)c(CC(=O)[O-])c(C)n2C(=O)c1ccc(Cl)cc1 [Indomethacin] | 104 | 98.9 | 93.9 | 91.2 | 91.5 | 20.8 | 95 |
| CC(=O)N(CC(O)CN(C(C)=O)c1c(I)c(C(=O)NCC(O)CO)c(I)c(C(=O)NCC(O)CO)c1I)c1c(I)c(C(=O)NCC(O)CO)c(I)c(C(=O)NCC(O)CO)c1I (stereo not given) [Iodixanol] | 149 | – | 102 | – | – | 10.7 | – |
| COC(=O)c1ccc(I)cc1S(=O)(=O)[N-]C(=O)Nc1nc(C)nc(OC)n1 [Iodosulfuron-methyl] | 116 | 102 | 107 | 101 | 92.8 | 19 | 96.8 |
